This note sets out measurements from patent US10851098B2, “Azole amides and amines as alpha v integrin inhibitors” (BRISTOL-MYERS SQUIBB COMPANY, priority 2016, dated 2020).

This assay addresses T1, human αVβ6 (Homo sapiens, UniProt P06756+P18564).
T1 construct: purchased R & D systems 3817-AV
In words: human αVβ6 HTRF binding assay. How it is done:
All binding assays used the HTRF (homogeneous time resolved fluorescence) technology from Cisbio International, therefore all assays are described as HTRF binding assays. The assay results for the Examples are listed above together with the characterization data. The HTRF binding assays are established for the following integrins: human αVβ6, human αVβ1, human αVβ3, human αVβ5, and human αVβ8. All assays used the following assay buffer: 20 mM Tris, pH 7.4, 1 mM MgCl2, 1 mM MnCl2, 0.01% Tween 20, and 0.01% BSA. Alternatively, a SPA-based assay was used for evaluation of receptor binding.
[…]

T1 sequence (P06756 31-992 limits assumed): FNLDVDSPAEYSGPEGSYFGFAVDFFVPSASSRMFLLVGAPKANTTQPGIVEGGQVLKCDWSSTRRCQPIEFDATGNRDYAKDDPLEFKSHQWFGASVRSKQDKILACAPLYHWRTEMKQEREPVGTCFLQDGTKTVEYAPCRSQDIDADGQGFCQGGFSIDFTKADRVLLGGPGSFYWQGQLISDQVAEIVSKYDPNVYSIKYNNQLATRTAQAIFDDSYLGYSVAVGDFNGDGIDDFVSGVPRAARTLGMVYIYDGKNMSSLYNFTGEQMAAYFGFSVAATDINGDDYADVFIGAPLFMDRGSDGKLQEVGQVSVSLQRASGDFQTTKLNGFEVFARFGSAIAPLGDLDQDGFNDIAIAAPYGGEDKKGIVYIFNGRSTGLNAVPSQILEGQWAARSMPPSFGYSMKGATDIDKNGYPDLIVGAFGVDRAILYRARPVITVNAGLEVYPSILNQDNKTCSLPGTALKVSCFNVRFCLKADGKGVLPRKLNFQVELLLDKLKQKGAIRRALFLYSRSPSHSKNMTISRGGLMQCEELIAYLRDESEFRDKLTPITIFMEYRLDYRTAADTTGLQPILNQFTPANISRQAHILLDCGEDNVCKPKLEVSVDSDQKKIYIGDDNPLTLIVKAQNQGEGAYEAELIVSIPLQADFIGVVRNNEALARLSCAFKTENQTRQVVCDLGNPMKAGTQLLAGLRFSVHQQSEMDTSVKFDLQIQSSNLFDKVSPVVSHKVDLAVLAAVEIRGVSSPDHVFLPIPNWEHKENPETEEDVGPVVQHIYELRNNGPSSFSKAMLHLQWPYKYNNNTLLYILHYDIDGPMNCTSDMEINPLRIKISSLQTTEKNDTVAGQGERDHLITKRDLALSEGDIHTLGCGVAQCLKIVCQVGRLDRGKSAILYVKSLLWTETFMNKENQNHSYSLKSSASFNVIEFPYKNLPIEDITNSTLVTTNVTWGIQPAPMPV
T1 sequence (P18564 22-707 limits assumed): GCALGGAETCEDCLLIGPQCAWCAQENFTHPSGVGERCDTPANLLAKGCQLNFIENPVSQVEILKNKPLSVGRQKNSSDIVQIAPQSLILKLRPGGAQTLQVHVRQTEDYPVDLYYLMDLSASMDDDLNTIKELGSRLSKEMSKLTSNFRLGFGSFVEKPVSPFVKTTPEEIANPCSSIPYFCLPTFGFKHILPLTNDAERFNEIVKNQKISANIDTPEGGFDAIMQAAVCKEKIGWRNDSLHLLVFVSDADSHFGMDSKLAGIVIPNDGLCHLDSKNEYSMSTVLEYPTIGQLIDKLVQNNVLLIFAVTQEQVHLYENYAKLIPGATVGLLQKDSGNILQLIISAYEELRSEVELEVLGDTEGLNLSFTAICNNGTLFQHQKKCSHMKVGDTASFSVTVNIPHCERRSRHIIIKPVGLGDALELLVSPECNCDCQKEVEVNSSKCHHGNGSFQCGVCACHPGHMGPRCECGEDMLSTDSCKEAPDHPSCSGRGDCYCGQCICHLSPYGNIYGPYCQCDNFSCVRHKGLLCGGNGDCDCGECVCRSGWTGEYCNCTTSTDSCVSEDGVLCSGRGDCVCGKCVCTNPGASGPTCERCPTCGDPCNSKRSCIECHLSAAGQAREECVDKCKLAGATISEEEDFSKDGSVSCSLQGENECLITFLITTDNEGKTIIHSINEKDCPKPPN

For the compound `COc1ccc([C@H](CC(=O)O)NC(=O)c2cn(CCc3ccc4c(n3)NCCC4)nc2CO)cc1F` [Example 2, (S)-3-(3-Fluoro-4-methoxyphenyl)-3-(3-(hydroxymethyl)-1-(2-(5,6,7,8-tetrahydro-1,8-naphthyridin-2-yl)ethyl)-1H-pyrazole-4-carboxamido)propanoic acid], the IC50 is 349 nM.

For the compound `O=C(O)CC(NC(=O)c1cnn(CCc2ccc3c(n2)NCCC3)c1CO)c1ccccc1Cl` (stereo not drawn) [Example 103], the 50% inhibitory concentration (IC50) turned out to be 2600 nM. Compared with the last compound, the IC50 is about 7.4-fold higher.

As to `CC(C)COC(=O)N[C@@H](CNC(=O)c1cnn(CCc2ccc3c(n2)NCCC3)c1)C(=O)O` [Example 131], the concentration for half-maximal inhibition (IC50) turned out to be 0.9 nM.

In turn, `O=C(O)CC(Cc1ccccc1)NC(=O)c1cnn(CCc2ccc3c(n2)NCCC3)c1` (stereo not drawn) [Example 99] came in with an IC50 of 1420 nM.

`C=CCCOC(=O)N[C@@H](CNC(=O)c1cnn(CCc2ccc3c(n2)NCCC3)c1)C(=O)O` [Example 135] showed an IC50 of 1.4 nM.

`CCCCC(CC)COC(=O)N[C@@H](CNC(=O)c1cnn(CCc2ccc3c(n2)NCCC3)c1)C(=O)O` (stereo partly drawn) [Example 152] displayed a 50% inhibitory concentration (IC50) of 0.4 nM.

In the case of `O=C(O)C[C@H](NC(=O)c1cnn(CCc2ccc3c(n2)NCCC3)c1)c1cc(Cl)cc(Cl)c1` [Example 16, (S)-3-(3,5-Dichlorophenyl)-3-(1-(2-(5,6,7,8-tetrahydro-1,8-naphthyridin-2-yl)ethyl)-1H-pyrazole-4-carboxamido)propanoic acid], the IC50 was determined as 4.2 nM.

In the case of `Cc1cc(C)c(S(=O)(=O)N[C@H](CNC(=O)c2cnn(CCCc3ccc4c(n3)NCCC4)c2)C(=O)O)c(C)c1` [Example 28], the IC50 stood at 6.1 nM.

`O=C(O)CC(NC(=O)c1cn(CCCc2ccc3c(n2)NCCC3)nc1CO)c1cc(Cl)cc(Cl)c1` (stereo not drawn) [Example 6, 3-(3,5-Dichlorophenyl)-3-(3-(hydroxymethyl)-1-(3-(5,6,7,8-tetrahydro-1,8-naphthyridin-2-yl)propyl)-1H-pyrazole-4-carboxamido)propanoic acid] returned a half-maximal inhibitory concentration (IC50) of 178 nM. This IC50 lies about 29-fold higher than the previous one.

`CCCS(=O)(=O)N[C@@H](CNC(=O)c1cnn(CCc2ccc3c(n2)NCCC3)c1)C(=O)O` [Example 138] registered an IC50 of 4.1 nM. This IC50 is about 43-fold lower than that of the compound before.

For `COc1ccc([C@H](CC(=O)O)NC(=O)c2cnn(CCc3ccc4c(n3)NCCC4)c2COC(C)(C)C)cc1F` [Example 50], the IC50 came out at 26 nM. Against the preceding compound, the IC50 is about 6.3-fold higher.

`Cc1nc2c(cc1CCn1ncc(C(=O)NC(CC(=O)O)c3cc(Cl)cc(Cl)c3)c1CO)CCCN2` (stereo not drawn) [Example 107]: the IC50 amounted to 5000 nM.

`CCCCS(=O)(=O)N[C@@H](CNC(=O)c1cnn(CCc2ccc3c(n2)NCCC3)c1)C(=O)O` [Example 124] returned an IC50 of 2.6 nM. Against the preceding compound, the IC50 is about 1900-fold lower.

As to `CN(C(=O)c1cnn(CCc2ccc3c(n2)NCCC3)c1)C(CC(=O)O)c1cc(Cl)cc(Cl)c1` (stereo not drawn) [Example 32], the concentration for half-maximal inhibition (IC50) was 7.6 nM.

`COc1ccc([C@H](CC(=O)O)NC(=O)c2cnn(CCCc3ccc4c(n3)NCCC4)c2)cn1` [Example 87] had an IC50 of 339 nM.

`Cc1cc(C)n(-c2cccc(C(CC(=O)O)NC(=O)c3cnn(CCc4ccc5c(n4)NCCC5)c3CO)c2)n1` (stereo not drawn) [Example 42] returned an IC50 of 16 nM.

In turn, `O=C(O)CC(NC(=O)c1cnn(CCc2ccc3c(n2)NCCC3)c1-c1ccccc1)c1cc(Cl)cc(Cl)c1` (stereo not drawn) [Example 69] yielded an IC50 of 111 nM.

`Cc1cc(C)c(S(=O)(=O)N[C@@H](CNC(=O)c2ccn(Cc3cc4c(nc3C)NCCC4)c2)C(=O)O)c(C)c1` [Example 122] yielded an IC50 of 43 nM.

As to `O=C(O)CC(NC(=O)c1cnn(CCc2ccc3c(n2)NCCC3)c1CO)c1cccc(C(F)(F)F)c1` (stereo not drawn) [Example 44], the IC50 turned out to be 16 nM.

As to `CN(C(=O)c1cnn(CCc2ccc3c(n2)NCCC3)c1)[C@@H](CC(=O)O)c1cc(Cl)cc(Cl)c1` [Example 25], the IC50 was 3.1 nM.

`O=C(O)CCNCc1cnn(CCc2ccc3c(n2)NCCC3)c1` [Example 175, 3-(((1-(2-(5,6,7,8-Tetrahydro-1,8-naphthyridin-2-yl)ethyl)-1H-pyrazol-4-yl)methyl)amino)propanoic acid] gave an IC50 of 272 nM.

In turn, `CCCCCCOC(=O)N[C@@H](CNC(=O)c1cnn(CCc2ccc3c(n2)NCCC3)c1)C(=O)O` [Example 160] displayed an IC50 of 0.7 nM. This IC50 is about 390-fold lower than that of the compound before.

`O=C(NC[C@H](NS(=O)(=O)Cc1cccc(Cl)c1)C(=O)O)c1cnn(CCc2ccc3c(n2)NCCC3)c1` [Example 163] gave an IC50 of 6.2 nM.

In the case of `Cc1cc(C)c(S(=O)(=O)N[C@@H](CNC(=O)c2cnn(CCCNC3=NCC(O)CN3)c2)C(=O)O)c(C)c1` (stereo partly drawn) [Example 172], the IC50 worked out at 4.5 nM.

The compound `CC(C)(C)OCc1c(C(=O)NC(CC(=O)O)c2cc(Cl)cc(Cl)c2)cnn1CCc1ccc2c(n1)NCCC2` (stereo not drawn) [Example 41] yielded a half-inhibitory concentration (IC50) of 14 nM.

In the case of `CC(C)(C)c1cc(Br)cc([C@H](CC(=O)O)NC(=O)c2cnn(CCc3ccc4c(n3)NCCC4)c2CO)c1` [Example 26], the IC50 is 5 nM. Compared with the last compound, the IC50 is about 2.8-fold lower.

`COc1ccc([C@H](CC(=O)O)NC(=O)c2cnn(CCc3ccc4c(n3)NCCC4)c2CO)cn1` [Example 43]: the IC50 was 16 nM.

On to `O=C(O)CC(NC(=O)c1cnn(CCc2ccc3c(n2)NCCC3)c1CO)c1ccc(F)cc1` (stereo not drawn) [Example 71], for which the IC50 is 120 nM.

As for `CCOC(=O)[C@H](CNC(=O)c1cn(CCc2ccc3c(n2)NCCC3)cn1)NS(=O)(=O)c1c(C)cc(C)cc1C` [Example 117], the IC50 is 130 nM.

In turn, `O=C(NC[C@H](NS(=O)(=O)Cc1ccccc1)C(=O)O)c1cnn(CCc2ccc3c(n2)NCCC3)c1` [Example 125] came in with an IC50 of 14 nM.

`COc1ccc([C@H](CC(=O)O)NC(=O)c2cn(CCc3ccc4c(n3)NCCC4)nc2COC(C)(C)C)cc1F` [Example 1, (S)-3-(3-(tert-Butoxymethyl)-1-(2-(5,6,7,8-tetrahydro-1,8-naphthyridin-2-yl)ethyl)-1H-pyrazole-4-carboxamido)-3-(3-fluoro-4-methoxyphenyl)propanoic acid] came in with an IC50 of 771 nM.

As to `O=C(NC[C@H](NS(=O)(=O)Cc1ccccc1Cl)C(=O)O)c1cnn(CCc2ccc3c(n2)NCCC3)c1` [Example 155], the IC50 is 5.5 nM. Compared with the last compound, the IC50 is about 140-fold lower.

`CCCCCOC(=O)N[C@@H](CNC(=O)c1cnn(CCc2ccc3c(n2)NCCC3)c1)C(=O)O` [Example 134] displayed an IC50 of 0.8 nM. Compared with the last compound, the IC50 is about 6.9-fold lower.

The compound `O=C(NC[C@H](NS(=O)(=O)CCc1cccc2ccccc12)C(=O)O)c1cnn(CCc2ccc3c(n2)NCCC3)c1` [Example 139] had an IC50 of 0.9 nM.

The compound `Cc1ccc(C(CC(=O)O)NC(=O)c2cnn(CCc3ccc4c(n3)NCCC4)c2CO)cc1C` (stereo not drawn) [Example 52] displayed an IC50 of 29 nM.

As to `COc1ccc([C@H](CC(=O)O)NC(=O)c2cnn(CCc3ccc4c(n3)NCCC4)c2)cc1F` [Example 39], the IC50 is 15 nM.

Take `O=C(O)CC(NC(=O)c1cnn(CCc2ccc3c(n2)NCCC3)c1)c1ccc2c(c1)OCO2` (stereo not drawn) [Example 56]: the IC50 worked out at 37 nM.

For `O=C(NC[C@H](NS(=O)(=O)Cc1cc(Cl)cc(Cl)c1)C(=O)O)c1cnn(CCc2ccc3c(n2)NCCC3)c1` [Example 140], the IC50 turned out to be 6.2 nM.

The compound `COc1ccc([C@H](CC(=O)O)NC(=O)c2cnn(CCCNC3=NCCN3)c2)cn1` [Example 88] yielded a half-maximal inhibitory concentration (IC50) of 378 nM.

The compound `O=C(O)CC(NC(=O)c1cnn(CCc2ccc3c(n2)NCCC3)c1CO)c1cc(Cl)cc(Cl)c1` (stereo not drawn) [Example 47] showed an IC50 of 22 nM.

Consider `CCOCCS(=O)(=O)N[C@@H](CNC(=O)c1cnn(CCc2ccc3c(n2)NCCC3)c1)C(=O)O` [Example 148], for which the IC50 came to 8.9 nM.

As to `O=C(O)CC(NC(=O)c1cnn(CCc2ccc3c(n2)NCCC3)c1CO)c1ccc(C(F)(F)F)cc1` (stereo not drawn) [Example 62], the IC50 amounted to 49 nM.

`CCS(=O)(=O)N[C@@H](CNC(=O)c1cnn(CCc2ccc3c(n2)NCCC3)c1)C(=O)O` [Example 126] gave an IC50 of 10 nM.

For the compound `Cc1nc2c(cc1CCn1ncc(C(=O)NC(CC(=O)O)c3cc(Cl)cc(Cl)c3)c1COC(C)(C)C)CCCN2` (stereo not drawn) [Example 108], the IC50 turned out to be 5000 nM.

Compound `O=C(O)C[C@H](NC(=O)c1cnn(CCc2ccc3c(n2)NCCC3)c1CO)c1cc(Cl)cc(Cl)c1` [Example 29] yielded an IC50 of 6.4 nM.

The compound `O=C(O)CC(NC(=O)c1cnn(CCc2ccc3c(n2)NCCC3)c1)c1cc(Cl)cc(Cl)c1` (stereo not drawn) [Example 30] gave an IC50 of 7.3 nM.

Take `O=C(NC[C@H](NS(=O)(=O)CC1CC1)C(=O)O)c1cnn(CCc2ccc3c(n2)NCCC3)c1` [Example 159]: the concentration for half-maximal inhibition (IC50) was 2.7 nM.

`CN(C(=O)c1cnn(CCc2ccc3c(n2)NCCC3)c1CO)C(CC(=O)O)c1cc(Cl)cc(Cl)c1` (stereo not drawn) [Example 40] returned an IC50 of 14 nM.

Compound `Cc1cc(CS(=O)(=O)N[C@@H](CNC(=O)c2cnn(CCc3ccc4c(n3)NCCC4)c2)C(=O)O)no1` [Example 158] yielded an IC50 of 29 nM.

With `CCN(C(=O)c1cnn(CCc2ccc3c(n2)NCCC3)c1)C(CC(C)=O)c1cc(Cl)cc(Cl)c1` (stereo not drawn) [Example 104], the IC50 came to 3810 nM. Compared with the last compound, the IC50 is about 130-fold higher.

`O=C(O)C[C@H](NC(=O)c1cnn(CCCc2ccc3c(n2)NCCC3)c1)c1cc(Cl)cc(Cl)c1` [Example 60]: the IC50 was determined as 46 nM.

In the case of `CC(C)(C)OCc1nn(CCc2ccc3c(n2)NCCC3)cc1C(=O)NC(CC(=O)O)c1ccc(Cl)c(Cl)c1` (stereo not drawn) [Example 84], the IC50 came out at 284 nM.

In turn, `N#Cc1cccc(CS(=O)(=O)N[C@@H](CNC(=O)c2cnn(CCc3ccc4c(n3)NCCC4)c2)C(=O)O)c1` [Example 169] gave an IC50 of 13 nM.

`O=C(O)CC(NC(=O)c1cnn(CCc2ccc3c(n2)NCCC3)c1CO)c1cc(F)cc(F)c1` (stereo not drawn) [Example 80] displayed an IC50 of 178 nM.

Usually IC50 stands for the concentration that inhibits the measured activity by half. Read a high IC50 as weaker potency.
